Reference: publication PMC9866852, “New Chlorinated Metabolites and Antiproliferative Polyketone from the Mangrove Sediments-Derived Fungus Mollisia sp. SCSIO41409” (Marine Drugs, 2022)
pIC50: −log10 of the molar value. Values after ≈ are worked out from the molar mass of the structure shown. Where two headings read alike, the source gives them in different places. Marks after values point to notes of the source that are not given here.

Columns and labels:
[1] = tested on: Fusarium oxysporum f.sp. niveum; experiment: Antifungal MIC, twofold serial dilution in 96-well plates; type: cell-based
[2] = tested on: Erysipelothrix rhusiopathiae WH13013; experiment: Antibacterial MIC, twofold serial dilution in 96-well plates; type: cell-based; settings: E. rhusiopathiae; for MIC: Erysipelothrix rhusiopathiae, WH13013
[3] = tested on: 22Rv1 cells; experiment: Cytotoxicity / antiproliferative MTT assay; type: cell-based, human; settings: read-out: Cytotoxic IC50
Protocol: (§1) Cell viability was analyzed by 3-(4,5)-[…] (MTT) assay as previously described. In brief, cells were seeded in a 96-well plate at a density of 5 × 10^3 per well overnight and treated with compounds for demand time. OD570 values were detected using a Hybrid Multi-Mode Reader (Synergy H1, BioTek, Santa Clara, CA, USA). The experiment was independently repeated three times.

[4] = tested on: Botrytis cinerea, Verticillium dahlia kieb., Fusarium graminearum schw., Fusarium oxysporum f.sp. niveum, Rhizoctonia solani, Septoria nodorum Berk.; type: cell-based; settings: range over B. cinerea, V. dahlia, R. solani, S. nodorum
[5] = tested on: Septoria nodorum Berk.; experiment: Antifungal MIC, twofold serial dilution in 96-well plates; type: cell-based; settings: Parastagonospora nodorum; S. nodorum
[6] = tested on: Escherichia coli ATCC 25922; experiment: Antibacterial MIC, twofold serial dilution in 96-well plates; type: cell-based; settings: ATCC25922, E. coli
[7] = tested on: Staphylococcus aureus ATCC 25923; experiment: as above; type: cell-based; settings: S. aureus; for MIC: Staphylococcus aureus, ATCC25923
[8] = tested on: Botrytis cinerea; experiment: Antifungal MIC, twofold serial dilution in 96-well plates; type: cell-based; settings: B. cinerea
[9] = tested on: Rhizoctonia solani; experiment: as above; type: cell-based; settings: R. solani
[10] = tested on: PC-3 cells; experiment: Cytotoxicity / antiproliferative MTT assay; type: cell-based; settings: Homo sapiens, PC-3, PC-3 (androgen receptor negative); read-out: Cytotoxic IC50
Protocol: as §1

[11] = tested on: Fusarium graminearum schw.; experiment: microbe, parasite or virus in culture; type: cell-based; settings: read-out: Antifungal MIC
[12] = tested on: Streptococcus suis SC19; experiment: Antibacterial MIC, twofold serial dilution in 96-well plates; type: cell-based; settings: S. suis; for MIC: Streptococcus suis, SC19
[13] = tested on: Verticillium dahlia kieb.; experiment: Antifungal MIC, twofold serial dilution in 96-well plates; type: cell-based; settings: V. dahlia
[14] = tested on: PC-3 cells; experiment: Cell cycle distribution, flow cytometry; type: cell-based, human; settings: 48 h
From the text: (§2) Then, cells were collected and stained with annexin V-FITC and PI solution, following the manufacturer’s manual (BMS500FI-300, Thermo Fisher Scientific, Waltham, MA, USA). Apoptotic rates and cell cycle distribution of PC-3 cells were examined and analyzed by flow cytometer (NovoCyte, Agilent, Santa Clara, CA, USA). Each experiment was repeated three times independently.

[15] = tested on: PC-3 cells; experiment: Plate clone formation assay; type: cell-based, human; settings: 0.16, 0.32 and 0.64 μM; two weeks
Protocol: The cell clone colony formation was observed after two weeks of treatment. Cells were fixed with 4% formaldehyde for 30 min and washed with PBS buffer, then stained with crystal violet stain solution for 30 min. The dye solution was removed and washed the cells with PBS buffer again. Cell colonies were recorded and analyzed by the colony count analysis system (GelCount, Oxford Optronix, Oxford, UK). The experiment was repeated three times independently.

[16] = tested on: Hela cells; experiment: Cytotoxicity / antiproliferative MTT assay; type: cell-based; settings: Homo sapiens, read-out: Cytotoxic IC50
Protocol: as §1

[17] = tested on: WPMY-1 cells; experiment: Cytotoxicity / antiproliferative MTT assay; type: cell-based; settings: read-out: Cytotoxic IC50
Protocol: as §1

[18] = tested on: HepG2 cells; experiment: Cytotoxicity / antiproliferative MTT assay; type: cell-based; settings: read-out: Cytotoxic IC50
Protocol: as §1

[19] = tested on: A549 cells; experiment: Cytotoxicity / antiproliferative MTT assay; type: cell-based; settings: Homo sapiens, read-out: Cytotoxic IC50
Protocol: as §1

[20] = Cytotoxicity / antiproliferative MTT assay; type: cell-based; settings: human, WPMY-1 cells, read-out: Cytotoxic IC50
Protocol: as §1

[21] = tested on: HepG2, A549, Hela, WPMY-1, MC3T3-E1 cells; experiment: Antiproliferative MTT assay, summary over other cells; type: cell-based; settings: range over HepG2, A549, Hela, read-out: IC50 values against other cells
Protocol: as §1

[22] = tested on: PC-3 cells; experiment: Apoptosis assay, annexin V-FITC/PI flow cytometry; type: cell-based, human; settings: 48 h
From the text: as §2

[23] = molecular target: human CCR5 receptor; parameters: method as in PMID 15217290; settings: read-out: IC50, inhibition of binding with human CCR5 receptor; cited from earlier work
[24] = Homo sapiens, 22Rv1, 22Rv1 (androgen receptor positive)

## O=C1NC(=O)C(Cl)=C1Cl [Compound 3, 3,4-dichloro-1H-pyrrole-2,5-dione]
[1]
  MIC: 50 µg/mL (≈ 301 µM)
[2]
  MIC: > 100 µg/mL
[3]; [24]
  pIC50: 5.08
[4]
  MIC values against six fungi: 25 to 50 µg/mL
[5]
  MIC: 25 µg/mL (≈ 151 µM)
[6]
  MIC: > 100 µg/mL
[7]
  MIC: 100 µg/mL (≈ 603 µM)
[8]
  MIC: 25 µg/mL (≈ 151 µM)
[9]
  MIC: 50 µg/mL (≈ 301 µM)
[10]
  pIC50: 5.02
[11]
  MIC: 50 µg/mL (≈ 301 µM)
[12]
  MIC: 100 µg/mL (≈ 603 µM)
other
  melting point: 173 to 175 °C
[13]
  MIC: 25 µg/mL (≈ 151 µM)

## CC=C(C)C(OC(C)=O)C(C)C1=CC(=O)C2=C(OC3(C)CCC4OC(C(C)(C)O)CCC4(C)C3C2)C1=O (stereo not drawn) [Compound 4, stemphone C]
[1]
  MIC: > 100 µg/mL
[2]
  MIC: 1.56 µg/mL (≈ 3.03 µM)
[14]; PC-3, 10.0 μM
  Freq S: 59.14%
[3]; 22Rv1 (androgen receptor positive)
  pIC50: 5.24
[3]; [24]
  pIC50: > 5.00
[5]
  MIC: 50 µg/mL (≈ 97.2 µM)
[6]
  MIC: > 100 µg/mL
[7]
  MIC: > 100 µg/mL
[15]
  Formation of clonal colonies of PC-3 cells: significantly inhibited the formation of clonal colonies of PC-3 cells
[8]
  MIC: > 100 µg/mL
[9]
  MIC: > 100 µg/mL
[16]
  pIC50: 4.94
[17]
  pIC50: 5.26
[18]; HepG2
  pIC50: 5.15
[18]; Homo sapiens, HepG2, HepG2
  pIC50: > 5.00
[19]
  pIC50: 4.93
[20]
  pIC50: > 5.00
[11]
  MIC: > 100 µg/mL
[12]
  MIC: 6.25 µg/mL (≈ 12.1 µM)
[21]
  pIC50: 4.93 to 5.44
[22]; PC-3, 2.5 μM
  Q3-1 quadrant, cells: 3.29%
  Q3-2 quadrant (late apoptosis), cells: 1.02%
  Q3-3 quadrant, cells: 94.52%
  Q3-4 quadrant (early apoptosis), cells: 1.17%
[22]; PC-3, 5.0 μM
  Q3-1 quadrant, cells: 4.69%
  Q3-2 quadrant (late apoptosis), cells: 4.89%
  Q3-3 quadrant, cells: 83.56%
  Q3-4 quadrant (early apoptosis), cells: 6.86%
[22]; PC-3, 10.0 μM
  Q3-1 quadrant, cells: 14.56%
  Q3-2 quadrant (late apoptosis), cells: 36.84%
  Q3-3 quadrant, cells: 33.95%
  Q3-4 quadrant (early apoptosis), cells: 14.64%
[13]
  MIC: > 100 µg/mL

## C[C@@H]1C[C@@H]([C@H](O)CC2CC(=O)NC(=O)C2)C(=O)[C@@H](C)C1 [Cycloheximide, reference compound]
[1]
  MIC: > 100 µg/mL
[5]
  MIC: 12.5 µg/mL (≈ 44.4 µM)
[8]
  MIC: 12.5 µg/mL (≈ 44.4 µM)
[9]
  MIC: 100 µg/mL (≈ 355 µM)
[11]
  MIC: 12.5 µg/mL (≈ 44.4 µM)
[13]
  MIC: 12.5 µg/mL (≈ 44.4 µM)

## CC(=O)O[C@@]12CO[C@@H]1C[C@H](O)[C@@]1(C)C(=O)[C@H](O)C3=C(C)[C@@H](OC(=O)[C@H](O)[C@@H](NC(=O)OC(C)(C)C)c4ccccc4)C[C@@](O)([C@@H](OC(=O)c4ccccc4)[C@H]21)C3(C)C [Docetaxel, reference compound]
[14]; PC-3, 1.0 μM
  Freq G2 (G2/M): 71.23%
[3]; [24]
  pIC50: 7.52
[10]
  pIC50: 6.92
[18]; Homo sapiens, HepG2, HepG2
  pIC50: 3.75
[19]
  pIC50: 4.52
[20]
  pIC50: 6.29
[22]; PC-3, 1.0 μM
  Q3-1 quadrant, cells: 5.87%
  Q3-2 quadrant (late apoptosis), cells: 1.68%
  Q3-3 quadrant, cells: 89.89%
  Q3-4 quadrant (early apoptosis), cells: 2.57%

## CC(C)=CCC[C@H](C)[C@H]1CC[C@]2(C)C[C@H]3[C@H](C(=O)C[C@@]3(C)O)/C(C=O)=C\C[C@@H]12 [Ophiobolin C]
[23]
  pIC50: 4.40

## [H]/N=C(/N)N[C@H]1[C@H](O)[C@@H](O)[C@H](O[C@@H]2O[C@@H](C)[C@](O)(C=O)[C@H]2O[C@@H]2O[C@@H](CO)[C@H](O)[C@@H](O)[C@@H]2NC)[C@@H](N/C(N)=N\[H])[C@@H]1O [Streptomycin, reference compound]
[6]
  MIC: 50 µg/mL (≈ 86 µM)

## Penicillin [reference compound]
[2]
  Antibacterial MIC: 6.25^b μg/mL
[2]; listed as penicillin
  Antibacterial MIC: 6.25 µg/mL
[7]
  Antibacterial MIC: 6.25 ^b μg/mL
[12]
  Antibacterial MIC: 1.56 ^b μg/mL
